Experimental data from patent US11969396B2, “IPA-3-loaded liposomes and methods of use thereof” (University of Georgia Research Foundation, Inc., priority 2016, dated 2024).

Legend:
[1] = system: PC-3 cell tumor xenografts; conditions: daily administration (Al-Azayzih et al. 2015); cited from earlier work
MCF-7 cells = assay: In vitro cytotoxicity, MTT staining; type: cell-based; conditions: Homo sapiens, MCF7
LNCaP cells = assay: In vitro cytotoxicity, MTT staining; type: cell-based; conditions: Homo sapiens
Description: (§1) The human prostate cancer cell lines PC-3, LNCaP and DU-145 and the breast cancer cell lines MCF-7 and MDA-231 were purchased from ATCC (Manassas, Va.). PC-3, LNCaP, and DU-145 cells were cultured in F12K, RPMI, and EMEM, respectively. MCF-7 and MDA-231 cells were cultured in RPMI. All culture media were supplemented with 10% FBS and 1% penicillin/streptomycin antibiotics (ATCC). All the cells were maintained at 37° C. in incubators with 5% CO2 and humidified atmosphere.
(§2) The cytotoxicity of the liposomal IPA-3 as well as the free IPA-3 was determined in three prostate cancer cell lines (PC-3, LNCaP, and DU-145) using the MTT assay (Twentyman, et al., Br J Cancer. 1987; 56: 279-85). Free IPA-3 and SSL-IPA-3 were used for comparison. Cells were seeded in 48-well tissue culture plates at 5×10^4 cells/ml and incubated at 37° C. in a 5% CO2 incubator for 24 hr. This time was sufficient for the cells to attach and resume their growth. Liposomes were diluted in the different culture media to their final concentrations and experiments were performed in triplicates. […] Plates were shaken for 15 min and absorbance was read at 590 nm using a Spectra Max M2 plate reader (BMG Lab Technologies, Inc., Durham, NC). […]

PC-3 cells [2] = assay: In vitro cytotoxicity, MTT staining; type: cell-based; conditions: Homo sapiens
Description: as §1, §2

[3] = system: PC-3 cell tumor xenografts; assay: In vivo prostate tumor xenograft growth; set-up: species or system athymic nude mice; conditions: 5 mg/kg i.p., 2 days/week, from day 7 to day 25
Description: (§3) All animal procedures listed in this article were performed as per the protocol approved by the Institutional Animal Care and Use Committee at the Charlie Norwood Veterans Affairs Medical Center, Augusta, GA (protocol #12-06-049). PC-3 cells were grown to 60-70% confluent in 225-ml flasks. Next, cells were collected and suspended in sterile normal saline. Cell suspension (3 million cells//mouse) was injected subcutaneously (SC) in 6-8-weeks-old male athymic nude mice (Harlan, Indianapolis, IN) (n=5-6). All the treatments (DMSO, empty liposomes, free IPA-3 (5 mg/Kg), and SSL-IPA-3 (5 mg/kg) were started on day 7 from tumor implantation, and were administered two times a week (i.p.). Tumor diameters were measured with digital calipers on day 7, 14, 21, and 25, and the tumor volume in mm^3 were calculated by the modified ellipsoidal formula (Tumor volume=½[length×width^2]). Average size of the tumors prior to the treatment with free IPA-3 and SSL-IPA-3 were 42 mm^3. Mice were sacrificed on day 25 and tumors were dissected, weighed, and snap-frozen for further immunohistochemistry analysis.

DU-145 cells = assay: In vitro cytotoxicity, MTT staining; type: cell-based, human
Description: as §1, §2

PC-3 cells [4] = assay: Cell death by annexin V and PI staining, flow cytometry; type: cell-based, human; conditions: 48 hr, free IPA-3 20-30 μM
[5] = system: PC-3 cell prostate tumor xenografts; assay: TUNEL assay of apoptosis in tumor xenograft sections; type: in vivo, athymic nude mice; conditions: 5 mg/kg i.p., 2 days/week; day 25
Description: as §3
The TUNEL assay for in situ detection of apoptosis was performed using the ApopTag® Fluorescein in situ Apoptosis detection kit (Millipore, MA) as described previously8. Frozen sections taken from prostate tumor xenografts were fixed in 2% paraformaldehyde at 4° C. for 30 min. […]

[6] = system: human prostate cancer cell lines PC-3, LNCaP and DU-145; assay: In vitro cytotoxicity, MTT staining, across the prostate cancer cell lines; type: cell-based
Description: as §1, §2

MDA-231 cells = assay: In vitro cytotoxicity, MTT staining; type: cell-based; conditions: Homo sapiens, MDA-MB-231
[7] = free form (Rudolph et al. 2015); cited from earlier work
[8] = Body weight of tumor bearing mice; type: in vivo, athymic nude mice; conditions: 5 mg/kg i.p., 2 days/week; after 25 days
Description: as §3

SMILES: Oc1ccc2ccccc2c1SSc1c(O)ccc2ccccc12 [IPA-3, 1,1′-Dithiodi-2-naphthtol]
- prostate tumor xenograft growth [1]: reduced prostate tumor xenograft growth
- IC50 (MCF-7 cells): 25 µM
- IC50 (LNCaP cells): 10 µM
- IC50 (PC-3 cells [2]): 12 µM
- PC-3 cell tumor xenograft growth [3]: did not have a significant effect
- susceptibility of DU-145 cells compared to PC-3 and LNCaP cells (DU-145 cells): less susceptible
- IC50 (DU-145 cells; Homo sapiens, DU-145, DU-145): ~32 µM
- percent of cells staining positive for annexin V alone (PC-3 cells [4]): significantly increased
- percent of cells staining positive for both annexin V and PI (PC-3 cells [4]): significantly increased
- number of apoptotic (TUNEL positive) cells per field compared to control groups [5]: significant increases
- IC50 ([6]; Homo sapiens, depending on the cell line, MTT staining): 10 to 35 µM
- effect on MTT staining ([6]; concentrations of 5-30 μM, 24, 48, 72 hrs): concentration-and time-dependent decreases in MTT staining
- IC50 (MDA-231 cells): 8 µM
- half-life in vivo [7]: very short half-life
- effect on body weight of mice [8]: no significant effect
